{
  "source": "patent US10711011B2",
  "about": "“Substituted oxazolidines as anti-bacterial agents” (BUGWORKS RESEARCH, INC., priority 2016, dated 2020)",
  "key": {"E. coli DNA gyrase": {"biological_target": "E. coli DNA gyrase (Escherichia coli, UniProt P0AES4+P0AES6)", "sequence (P0AES4 whole entry, one chain of several)": "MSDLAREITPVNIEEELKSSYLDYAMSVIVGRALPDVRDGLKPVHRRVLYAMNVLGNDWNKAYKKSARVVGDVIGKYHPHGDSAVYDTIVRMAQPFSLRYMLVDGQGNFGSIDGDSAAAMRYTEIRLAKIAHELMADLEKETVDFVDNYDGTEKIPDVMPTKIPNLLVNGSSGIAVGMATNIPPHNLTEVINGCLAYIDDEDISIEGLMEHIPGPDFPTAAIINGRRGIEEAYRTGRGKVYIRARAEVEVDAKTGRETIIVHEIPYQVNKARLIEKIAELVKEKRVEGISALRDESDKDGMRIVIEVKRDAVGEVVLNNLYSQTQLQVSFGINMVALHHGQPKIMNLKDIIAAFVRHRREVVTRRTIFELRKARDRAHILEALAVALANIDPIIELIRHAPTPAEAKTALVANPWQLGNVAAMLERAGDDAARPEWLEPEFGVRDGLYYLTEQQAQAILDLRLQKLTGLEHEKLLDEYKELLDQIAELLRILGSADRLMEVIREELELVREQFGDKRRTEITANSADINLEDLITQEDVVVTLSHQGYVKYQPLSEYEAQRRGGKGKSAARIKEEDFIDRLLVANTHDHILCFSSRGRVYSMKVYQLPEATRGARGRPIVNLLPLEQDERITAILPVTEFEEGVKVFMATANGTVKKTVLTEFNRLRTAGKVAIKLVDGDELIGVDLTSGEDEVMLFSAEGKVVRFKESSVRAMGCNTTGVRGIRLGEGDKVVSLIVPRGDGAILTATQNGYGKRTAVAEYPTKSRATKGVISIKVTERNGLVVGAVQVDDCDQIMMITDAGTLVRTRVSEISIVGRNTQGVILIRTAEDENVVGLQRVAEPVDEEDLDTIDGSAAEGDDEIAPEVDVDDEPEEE", "test": "biochemical", "conditions": "supercoiling assay"}, "[1]": {"test": "Mouse intravenous pharmacokinetics", "format": "in vivo, BALB/c mice", "conditions": "2 mg/kg", "description": "To assess the Oral and Intravenous pharmacokinetic profile of Example 13, pharmacokinetics (PK) of Example 13 was characterized in BALB/c mice following single intravenous (i.v.) dose of 2 mg/kg and single escalating oral doses of 2, 10, 50 and 100 mg/kg, respectively. This study was performed following all ethical practices as laid down in the guidelines for animal care (Registration number No. 1852/PO/Rc/S/16/CPCSEA). The study was approved by the Institutional Animals Ethics Committee (IAEC) of the test facility. For IVPK in BALB/c mice, the formulation used was DMSO: PEG400: Ethanol: Water (10:20:10:60 v/v) and Example 13 administered as solution. For POPK, the formulation used was 0.1% Tween80 in 0.25% CMC and Example 13 administered as suspension through an oral gavage. The plasma (mice) samples were analyzed by LC-MS/MS. PK parameters were estimated by non-compartmental analysis in Phoenix WinNonlin 6.4 The results of the per-oral and intravenous PK study of Example 13 are presented in Table 4 and 5"}, "P. aurigenosa ATCC 27853": {"test_system": "P. aurigenosa ATCC 27853", "test": "Minimum Inhibitory Concentration (MIC) in LB media", "format": "cell-based, Pseudomonas aurigenosa", "conditions": "Pseudomonas, ATCC27853, LB Media", "text": "(§1) The compounds of Formula I are of interest due to their potent antibacterial effects. The ability of the invention compounds disclosed herein to achieve an antibacterial effect may be evaluated with regard to their ability to inhibit the growth of bacterial species like Escherichia coli ATCC 25922, Staphylococcus aureus ATCC 29213, Klebsiella pneumoniae ATCC 13883, Acinetobacter baumannii ATCC 19606, Pseudomonas aurigenosa ATCC 27853, Enterococcus faecalis ATCC 29212 and Enterococcus faecalis ATCC 29212 using an assay based on the following Minimum Inhibitory Concentration (MIC) protocol:\n(§2) The test bacteria are grown in Luria Bertani Broth (HIMEDIA M1245), 25 grams of the powder is dissolved in 1000 ml distilled water and sterilized by autoclaving at 15 lbs pressure (121° C.) for 20 minutes. The medium sterility is checked by incubating at 37° C. for a period of 48 h.\n(§3) Bacterial cultures that are stored as glycerol stocks at −80° C. are sub cultured on LB agar plates to obtain isolated colonies. A single colony of each strain is cultured in LB broth. The cultures are incubated at 37° C., 200 rpm till they reach an optical density (OD at 600 nm) of 0.8 to 1. […] Test compounds are dissolved in dimethyl sulfoxide (DMSO) to a stock concentration of 4 mg/ml. A twofold dilution series of this DMSO stock is prepared in a 96 well V bottom microtitre plate from rows A to H. A 3 μL volume of these dilutions are transferred to a 96-well flat bottom microtitre assay plate. Controls to monitor the effects of DMSO and media sterility are included. Each well is inoculated with 150 μL of the above diluted culture. The plates are incubated at 37° C. overnight in a humidified incubator. The following morning, the plates are read using a Spectrophotometer at 600 nm wavelength. […] The antibacterial activity (MIC) determined against representative Gram positive (S. aureus, E. faecalis) and Gram negative (E. coli, P. aurigenosa, K. pneumoniae and A. baumannii) pathogen were reported Table 1."}, "A. baumannii ATCC 19606": {"test_system": "A. baumannii ATCC 19606", "test": "Minimum Inhibitory Concentration (MIC) in LB media", "format": "cell-based, Acinetobacter baumannii", "conditions": "Acinetobacter baumannii, ATCC19606, LB Media", "text": "as §1, §2, §3"}, "K. pneumoniae ATCC 13883": {"test_system": "K. pneumoniae ATCC 13883", "test": "Minimum Inhibitory Concentration (MIC) in LB media", "format": "cell-based, Klebsiella pneumoniae", "conditions": "Klebsiella pneumoniae, ATCC13883, LB Media", "text": "as §1, §2, §3"}, "E. coli [ATCC 25922]": {"test_system": "E. coli [ATCC 25922]", "test": "In vivo efficacy in the mouse E. coli thigh infection model", "conditions": "neutropenic BALB/c mice, oral", "description": "To assess the Oral efficacy, Example 13 was tested in BALB/c mice thigh infection model following per oral doses of 100 mg/kg once, 50 mg/kg once and twice, 33 mg/kg thrice and 25 mg/kg four times over a 24 hour period post infection. This study was performed following all ethical practices as laid down in the guidelines for animal care (Registration number No. 1852/PO/Rc/S/16/CPCSEA). The study was approved by the Institutional Animals Ethics Committee (IAEC) of the test facility. The formulation used was 0.1% Tween80 in 0.25% CMC and Example 13 administered as suspension through an oral gavage. Neutropenic mice were infected with [˜1×10^6 CFU/mouse] E. coli [ATCC 25922] by intramuscular route. Two hours post infection, mice were treated orally with total doses of 100, 50, 50, 33 and 25 mg/kg of Example 13 as one, two, three and four equally divided doses over a 24 h period. Animals were sacrificed 24 hr post infection and thigh tissues were harvested to enumerate the bacterial CFU count. Thigh muscles were placed in 1 ml of sterile LB broth and homogenized using a homogenizer (Omni Tip (220 volt hand held)). Serial ten-fold dilutions of the thigh homogenates were prepared in sterile LB broth, 0.05 ml of four dilutions for each thigh was plated onto Lactose agar plates. […]"}, "E. faecalis ATCC 29212": {"test_system": "E. faecalis ATCC 29212", "test": "Minimum Inhibitory Concentration (MIC) in LB media", "format": "cell-based, Enterococcus faecalis", "conditions": "Enterococcus faecalis, ATCC29212", "text": "as §1, §2, §3"}, "E. coli ATCC 25922": {"test_system": "E. coli ATCC 25922", "test": "Minimum Inhibitory Concentration (MIC) in LB media", "format": "cell-based, Escherichia coli", "conditions": "Escherichia coli, ATCC25922, LB Media", "text": "as §1, §2, §3"}, "[2]": {"conditions": "BALB/c, mouse, plasma, iv, mice"}},
  "note": "Read-outs that look alike come from different tables or passages of the source.",
  "data": [
    {"smiles": "CN1C(=O)Cc2ccc(F)c(CCNCCC3CN(c4ccc5c(n4)NC(=O)CO5)C(=O)O3)c21", "note": "(single isomer, unassigned) [Example 13, 6-(5-(2-((2-(6-fluoro-1-methyl-2-oxoindolin-7-yl)ethyl)amino)ethyl)-2-oxooxazolidin-3-yl)-2H-pyrido[3,2-b][1,4]oxazin-3(4H)-one]", "values": [
      {"measurement": "IC50", "setting": "E. coli DNA gyrase", "value": 50, "unit": "nM"},
      {"measurement": "clearance", "setting": "[1]; BALB/c, mouse, plasma, iv, BALB/c mice, single i.v. dose of 2.0 mg/kg, read-out: systemic clearance (converted)", "value": 95, "unit": "mL/min/kg"},
      {"measurement": "Vd", "setting": "[1]; BALB/c, mouse, plasma, iv, BALB/c mice, single i.v. dose of 2.0 mg/kg, read-out: volume of distribution at steady state", "value": 13.3, "unit": "L/kg"},
      {"measurement": "half-life", "setting": "[1]; [2]", "value": 102, "unit": "min"},
      {"measurement": "clearance", "setting": "[1]; BALB/c, mouse, plasma, iv, mice, i.v., read-out: CL (converted)", "value": 94.8, "unit": "mL/min/kg"},
      {"measurement": "Vd", "setting": "[1]; BALB/c, mouse, plasma, iv, mice, i.v., read-out: Vss", "value": 13.3, "unit": "L/kg"},
      {"measurement": "AUC(0-inf)", "setting": "[1]; [2]", "value": 352, "unit": "ng·h/mL"},
      {"measurement": "AUC(0-t)", "setting": "[1]; [2]", "value": 352, "unit": "ng·h/mL"},
      {"measurement": "AUC (% Extrap)", "setting": "[1]; mice, i.v.", "value": 0.002, "unit": "%"},
      {"measurement": "Ke", "setting": "[1]; mice, i.v.", "value": 0.403, "unit": "h⁻¹"},
      {"measurement": "t1/2", "setting": "[1]; mice, i.v.", "value": 1.718, "unit": "h"},
      {"measurement": "MIC", "setting": "P. aurigenosa ATCC 27853", "value": 0.5, "unit": "µg/mL"},
      {"measurement": "MIC", "setting": "A. baumannii ATCC 19606", "value": 0.06, "unit": "µg/mL"},
      {"measurement": "MIC", "setting": "K. pneumoniae ATCC 13883", "value": 0.125, "unit": "µg/mL"},
      {"measurement": "efficacy (bacterial density Log 10 CFU/thigh vs vehicle)", "setting": "E. coli [ATCC 25922]; 100 mg/kg as single, two, three and four equally divided doses over 24 h", "value": "significant efficacy"},
      {"measurement": "efficacy (bacterial density Log 10 CFU/thigh vs vehicle)", "setting": "E. coli [ATCC 25922]; single dose of 50 mg/kg", "value": "ineffective"},
      {"measurement": "MIC", "setting": "E. faecalis ATCC 29212", "value": 0.25, "unit": "µg/mL"},
      {"measurement": "MIC", "setting": "E. coli ATCC 25922", "value": 0.06, "unit": "µg/mL"}
    ]}
  ]
}
